Target: Phosphatidylinositol 4-kinase beta (Homo sapiens, UniProt Q9UBF8)
Experiment: Kinase Glo Luminescent Kinase Assay
Excerpt: PI 3-Kinase Alpha (A), Pb 3-Kinase Beta (B), Vps34 (C), PI 4-Kinase Beta (D):The luminescence-based ATP detection reagent KinaseGlo was obtained from Promega, (Cat. No. V6714, Lot No. 236161) through Catalys, Wallisellen, Switzerland. L-alpha-phosphatidylinositol (PI, liver, bovine) was obtained from Avanti Polar Lipid (Cat. No. 840042C, Lot#LPI-274), Phosphatidylinositol-4,5-bisphosphate (PIP(4,5)2) was also obtained from Avanti Polar Lipid (Cat. No. 840046X). L-α-Phosphatidylserine (PS) was obtained from Avanti Polar Lipid (Cat. No. 840032C), n-Octylglucoside from Avanti Polar Lipid (Cat. No. 10634425001). Luminescence is a well established readout to determine ATP concentrations and can thus be used to follow the activity of many kinases regardless of their substrate. The Kinase Glo Luminescent Kinase Assay (Promega, Madison/WI, USA) is a homogeneous HTS method of measuring kinase activity by quantifying the amount of ATP remaining in solution following a kinase reaction.

Sequence of Phosphatidylinositol 4-kinase beta (Q9UBF8 whole entry): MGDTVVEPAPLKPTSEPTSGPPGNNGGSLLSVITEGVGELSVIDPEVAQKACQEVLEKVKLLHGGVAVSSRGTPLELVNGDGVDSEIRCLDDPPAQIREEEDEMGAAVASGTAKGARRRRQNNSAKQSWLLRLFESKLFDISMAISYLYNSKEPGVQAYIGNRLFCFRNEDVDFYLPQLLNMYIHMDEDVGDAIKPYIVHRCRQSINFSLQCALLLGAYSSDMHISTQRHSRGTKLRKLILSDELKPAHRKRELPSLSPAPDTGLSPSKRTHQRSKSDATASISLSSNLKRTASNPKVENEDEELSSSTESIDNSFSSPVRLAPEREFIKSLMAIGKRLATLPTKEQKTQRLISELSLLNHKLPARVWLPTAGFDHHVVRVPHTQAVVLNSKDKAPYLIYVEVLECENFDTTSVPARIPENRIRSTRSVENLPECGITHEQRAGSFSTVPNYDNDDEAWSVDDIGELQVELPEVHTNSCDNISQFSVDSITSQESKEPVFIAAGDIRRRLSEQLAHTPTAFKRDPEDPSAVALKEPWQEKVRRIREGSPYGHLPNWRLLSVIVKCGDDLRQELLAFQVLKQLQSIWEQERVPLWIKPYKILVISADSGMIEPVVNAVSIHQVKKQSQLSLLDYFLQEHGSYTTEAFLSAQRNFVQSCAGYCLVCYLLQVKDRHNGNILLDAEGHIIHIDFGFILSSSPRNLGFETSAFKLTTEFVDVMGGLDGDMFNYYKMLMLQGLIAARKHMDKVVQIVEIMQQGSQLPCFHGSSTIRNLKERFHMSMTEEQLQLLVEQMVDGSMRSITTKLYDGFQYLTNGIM

| IC50 | Compound |
| --- | --- |
| > 10 µM | Cc1ccc(S(=O)(=O)NC2CC3(CC(O)C3)C2)cc1-c1cncc(-c2cn(C)nc2C)n1 (centres undefined) [US9862711, Example 6] |
| > 10 µM | Cc1ccc(S(=O)(=O)NC[C@H]2C[C@@H](O)C2)cc1-c1cncc(-c2cn(C)nc2C)n1 [US9862711, Example 7] |
| > 9.1 µM | Cc1ccc(S(=O)(=O)N[C@H]2CC[C@H](O)CC2)cc1-c1cncc(-c2csc(CN3CCOCC3)c2)n1 [US9862711, Example 12] |
| > 9.55 µM | Cc1cc(-c2cncc(-c3cc(S(=O)(=O)NC[C@H]4C[C@@H](O)C4)ccc3C)n2)n(C)n1 [US9862711, Example 13] |
